In paper PMC9320886, “Daily Intraperitoneal Administration of Rosiglitazone Does Not Improve Lung Function or Alveolarization in Preterm Rabbits Exposed to Hyperoxia” (Pharmaceutics, 2022):
Like-named read-outs stand apart in the source and are kept apart here.

What was measured:
[1] = test system: preterm rabbits exposed to hyperoxia; assay: quantification of blood lipid levels; type: in vivo, rabbit
Experimental: Whole blood samples from pups in the RGZ (1 and 10 mg/kg groups) and control groups (n = 6 per group) were obtained though cardiac puncture. Briefly, a 22G needle was inserted into the left ventricle and approximately 1.5 mL of whole blood were collected in K2-EDTA tubes and stored on ice. Within 60 min after blood draw, samples were centrifuged at 1500× g for 15 min and the […] was immediately stored at −80 °C. At the day of quantification, samples were gently thawed overnight at 4 °C and the level of triglycerides (TG), total cholesterol, high-density cholesterol (HDL), and non-HDL were determined using a Cobas 8000 modular analyzer (Roche).

[2] = test system: preterm rabbits exposed to hyperoxia; assay: pulmonary efficacy, daily intraperitoneal 10 mg/kg, preterm rabbits exposed to hyperoxia; type: in vivo, rabbit; conditions: daily i.p. 10 mg/kg
Experimental: At Day 7, invasive lung function testing was performed using the forced oscillation technique with the flexiVent^TM apparatus (SCIREQ, Montréal, Canada). Pups were anesthetized with intramuscular ketamine (35 mg/kg) and xylazine (6 mg/kg) before a tracheostomy was performed, and an 18-gauge metal needle was inserted in the trachea and tied. Pups were connected to the volume-controlled mechanical ventilation of the flexiVent^TM (SCIREQ, tidal volume 10 mL/kg, frequency of 120 breaths/min, PEEP of 3 cmH2O). All pups were euthanized with a pentothal sodium overdose.
The following parameters were measured: total inspiratory capacity, resistance of the respiratory system (Rrs), lung tissue damping (G), lung tissue elastance (H), and static compliance (Cst). Three consistent measurements were obtained, with a coefficient of determination >0.95 as the limit to accept the measurement. The average of three measurements was calculated and used in the analysis.
At necropsy, lungs were removed en bloc and a 20-gauge catheter was secured inside the trachea. Lungs were fixed with 10% buffered formalin (Sigma-Aldrich) for at least 4 h under constant pressure (25 cmH2O) using a custom-made fixation device to ensure homogenous fixation pressures. After removal from pressure fixation, the lungs were first left in formalin for at least 24 h and then transferred to 70% ethanol.
The left lung and the right lungs were embedded in paraffin, cut, and stained with hematoxylin and eosin (H&E) following standard histology protocols. The radial alveolar count (RAC) was performed by an expert pathologist blinded to the experimental design by drawing a perpendicular line from the lumen of the terminal bronchiole to the nearest connective tissue septum or pleural margin and the number of saccules or alveoli crossed by this line was counted as previously described. In total, 20 measurements were performed for each lung pair.
An independent experimental session investigated the efficacy of RGZ at a higher dose (10 mg/kg). In total, 36 preterm rabbits with a GA of 28 days delivered from 4 does were randomized to either the control group (n = 18) or the RGZ 10 mg/kg group (n = 18 per group). Hyperoxia exposure, RGZ administration, animal care and feeding procedures, lung function testing, RAC, and sample collection were performed as described above.

[3] = parameters: method as in PMID 16617452; conditions: newborn rats; cited from earlier work
[4] = test system: neonatal rats exposed to hyperoxia; parameters: method as in PMID 19304912; conditions: hyperoxia (95% O2), 1 or 3 mg/kg for 7 days; cited from earlier work
[5] = Caco-2 permeability assay; type: in vitro ADME; conditions: human, basolateral to apical
[6] = daily 1 mg/kg, PND 7, vs vehicle, p < 0.01

**Q.** With CN(CCOc1ccc(CC2SC(=O)NC2=O)cc1)c1ccccn1 (stereo not shown) [RGZ, rosiglitazone] as the compound, how does the “serum non-HDL” value [1, 6] read?
**A.** significantly increased

**Q.** And the serum total cholesterol [1, 6]?
**A.** significantly increased

**Q.** What about the serum triglycerides ([1]; daily 1 mg/kg, PND 7, vs vehicle, p < 0.05) of the same compound?
**A.** significantly increased

**Q.** And the serum lipids ([1]; daily 10 mg/kg, PND 7, p < 0.0001 for all lipids)?
**A.** aberrant modulation

**Q.** And the plasma appearance [2]?
**A.** white, dense appearance

**Q.** And the RAC ([2]; PND 7, vs vehicle)?
**A.** no difference between groups

**Q.** What about the inspiratory capacity ([2]; PND 7, vs vehicle, p < 0.01) of the same compound?
**A.** significantly lower

**Q.** And the “lung compliance (Cst)” value ([2]; PND 7, vs vehicle, p < 0.01)?
**A.** significantly lower

**Q.** What about the mortality ([2]; vs vehicle) of the same compound?
**A.** similar

**Q.** What about the “plasma levels reported to protect the lungs from hyperoxia” value [3] of the same compound?
**A.** 350 ng/mL

**Q.** What about the “RAC and alveolar septal thickness” value [4] of the same compound?
**A.** significantly improved

**Q.** What about the Papp B→A at 2 h, 10 µM ([5]; Caco-2, pH 7.4, with Elacridar (GF120918), concentration not given, with Elacridar, read-out: Papp with Pgp Inhibitor (B–A) (converted)) of the same compound?
**A.** 11.4 ×10⁻⁶ cm/s

**Q.** And the Papp B→A at 2 h, 10 µM ([5]; Caco-2, pH 7.4, 2 h, without Pgp inhibitor, read-out: Papp (B–A) (converted))?
**A.** 10 ×10⁻⁶ cm/s
